Experimental data taken from patent publication US12319655B2, “RAF kinase inhibitors and methods of use thereof” (Deciphera Pharmaceuticals, LLC, priority 2021, dated 2025).

How the values were obtained:
[1] = target: A-Raf kinase (SEQ. ID No: 1) (Homo sapiens (Human), UniProt P10398, Y301D/Y302D); test: Biochemical Assay for A-Raf (1); conditions: Table J, assay version (1); read-out: ARAF (1) IC50
How it was run: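 A-Raf Y301D/Y302D at 5.55 nM phosphorylates 30.1 nM MEK with 1 mM ATP in pH 7.5 Tris buffer, 1% DMSO. Activity was read continuously as NADH oxidation at 340 nm in a pyruvate kinase/lactate dehydrogenase coupled system for 6 h at 30 °C. Rates from 4–5 h were converted to percent inhibition, and IC50 came from a four-parameter fit.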

[2] = target: B-Raf kinase (SEQ. ID NO: 2) (Homo sapiens (Human), UniProt P15056); test: Biochemical Assay for B-Raf (1); conditions: Table J, assay version (1); read-out: BRAF (1) IC50
How it was run: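 Continuous PK/LDH-coupled NADH oxidation assay, A340 read for 6 h at 30° C., with 0.13 nM B-Raf, 30.1 nM MEK substrate and 1 mM ATP in Tris pH 7.5, MgCl2, DTT, detergents, 1% DMSO. Rate taken from 4–5 h window; percent inhibition vs no-compound and known-inhibitor controls; four-parameter fit gives IC50.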

[3] = target: C-Raf kinase (SEQ. ID NO: 3) (Homo sapiens (Human), UniProt P04049, Y340D/Y341D); test: Biochemical Assay for C-Raf (1); conditions: Table J, assay version (1); read-out: CRAF (1) IC50
How it was run: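 Coupled pyruvate kinase/LDH assay tracking NADH oxidation at 340 nm, with 0.43 nM C-Raf, 30.1 nM MEK and 1 mM ATP in pH 7.5 Tris buffer (15 mM MgCl2, 1% DMSO final). Read continuously for 6 h at 30 °C, rate taken from the 4–5 h window. IC50 from four-parameter fit of percent inhibition.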

A375 cells = test: A375 Cell Proliferation Assay (1); type: cell-based; conditions: Homo sapiens, A-375
How it was run: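 Resazurin fluorescence (excitation 540 nm, emission 600 nm, after a further 5-6 h) gave IC50s from triplicate compound dilution series.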

C-Raf kinase (SEQ. ID NO: 3), sequence (P04049 307-648 Y340D/Y341D): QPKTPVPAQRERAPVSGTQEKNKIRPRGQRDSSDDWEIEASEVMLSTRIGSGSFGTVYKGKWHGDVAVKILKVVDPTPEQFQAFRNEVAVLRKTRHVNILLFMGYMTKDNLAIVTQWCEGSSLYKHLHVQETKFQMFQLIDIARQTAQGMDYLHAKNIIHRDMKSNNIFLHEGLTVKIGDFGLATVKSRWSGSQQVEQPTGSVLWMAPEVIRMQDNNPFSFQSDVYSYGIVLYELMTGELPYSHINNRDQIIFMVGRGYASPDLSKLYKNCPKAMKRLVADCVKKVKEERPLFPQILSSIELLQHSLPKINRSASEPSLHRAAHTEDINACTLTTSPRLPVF
A-Raf kinase (SEQ. ID No: 1), sequence (P10398 other isoform, or with tags, fused parts or gaps Y301D (already in the parent)/Y302D (already in the parent)): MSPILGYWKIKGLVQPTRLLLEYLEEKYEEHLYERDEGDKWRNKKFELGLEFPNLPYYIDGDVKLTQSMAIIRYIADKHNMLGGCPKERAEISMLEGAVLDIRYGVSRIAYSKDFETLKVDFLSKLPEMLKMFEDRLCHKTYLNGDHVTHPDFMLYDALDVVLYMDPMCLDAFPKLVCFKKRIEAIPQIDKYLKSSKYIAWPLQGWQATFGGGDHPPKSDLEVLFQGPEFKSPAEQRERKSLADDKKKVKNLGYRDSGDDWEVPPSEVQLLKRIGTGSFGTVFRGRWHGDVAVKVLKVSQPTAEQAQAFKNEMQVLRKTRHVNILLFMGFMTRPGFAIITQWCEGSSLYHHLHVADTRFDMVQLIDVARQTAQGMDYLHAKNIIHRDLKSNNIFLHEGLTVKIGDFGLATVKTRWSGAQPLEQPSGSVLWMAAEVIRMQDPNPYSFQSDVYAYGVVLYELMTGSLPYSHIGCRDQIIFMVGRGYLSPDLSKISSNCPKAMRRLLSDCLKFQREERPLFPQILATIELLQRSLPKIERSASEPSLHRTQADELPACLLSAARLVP
B-Raf kinase (SEQ. ID NO: 2), sequence (P15056 416-766): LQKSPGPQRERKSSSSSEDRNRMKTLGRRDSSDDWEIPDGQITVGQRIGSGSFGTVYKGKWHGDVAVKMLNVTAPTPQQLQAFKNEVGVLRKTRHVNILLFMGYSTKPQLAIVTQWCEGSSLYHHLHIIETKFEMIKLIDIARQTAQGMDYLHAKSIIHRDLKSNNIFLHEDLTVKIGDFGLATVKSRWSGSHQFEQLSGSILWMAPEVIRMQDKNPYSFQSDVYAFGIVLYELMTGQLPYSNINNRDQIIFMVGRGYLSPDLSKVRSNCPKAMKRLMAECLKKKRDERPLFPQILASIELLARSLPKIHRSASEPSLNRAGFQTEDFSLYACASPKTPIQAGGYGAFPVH

| Compound | IC50 [1] [nM] | IC50 [2] [nM] | IC50 [3] [nM] | IC50 (A375 cells) [nM] |
| --- | --- | --- | --- | --- |
| CC(=O)Nc1cc(-c2cc(-c3cc(NC(=O)c4ccnc(C(F)(F)F)c4)ccc3C)cn(C)c2=O)ccn1 [Example 21, N-(3-(2′-acetamido-1-methyl-2-oxo-1,2-dihydro-[3,4′-bipyridin]-5-yl)-4-methylphenyl)-2-(trifluoromethyl)isonicotinamide] | 1000 to 10000 | ≤ 100 | ≤ 100 | 1000 to 10000 |
| Cc1ccc(NC(=O)c2ccnc(C(C)(C)C#N)c2)cc1-c1nccc(-c2ccnc3c2CC(=O)N3)n1 [Example 22] | 1000 to 10000 | ≤ 100 | ≤ 100 | 1000 to 10000 |
| Cc1ccc(NC(=O)c2ccnc(C(C)(C)C#N)c2)cc1-c1ccnc(-c2ccnc3c2CC(=O)N3)c1 [Example 23] | 1000 to 10000 | ≤ 100 | ≤ 100 | ≤ 100 |
| CC(=O)Nc1cc(-c2nccc(-c3cc(NC(=O)c4ccnc(C(F)(F)F)c4)ccc3C)n2)ccn1 [Example 24] | 500 to 1000 | ≤ 100 | ≤ 100 | ≤ 100 |
| CNC(=O)c1cc(-c2nccc(-c3cc(NC(=O)c4ccnc(C(F)(F)F)c4)ccc3C)n2)ccn1 [Example 25] | 1000 to 10000 | ≤ 100 | ≤ 100 | 500 to 1000 |
| CC(=O)Nc1cc(-c2cc(-c3cc(C(=O)Nc4ccnc(C(F)(F)F)c4)ccc3C)ccn2)ccn1 [Example 26] | 1000 to 10000 | ≤ 100 | ≤ 100 | 100 to 500 |
| CNC(=O)c1cc(-c2cc(-c3cc(NC(=O)c4ccnc(C(F)(F)F)c4)ccc3C)cc(C3CC3)n2)ccn1 [Example 27] | 1000 to 10000 | 100 to 500 | 100 to 500 | ≤ 100 |
| CC(=O)Nc1cc(-c2cccc(-c3cc(NC(=O)c4ccnc(C(F)(F)F)c4)ccc3C)c2)ccn1 [Example 28] | 500 to 1000 | ≤ 100 | ≤ 100 | ≤ 100 |
| CC(=O)Nc1cc(-c2cncc(-c3cc(NC(=O)c4ccnc(C(F)(F)F)c4)ccc3C)n2)ccn1 [Example 29] | 1000 to 10000 | ≤ 100 | ≤ 100 | 100 to 500 |
| CC(=O)Nc1cc(-c2cccc(-c3cc(NC(=O)c4ccnc(C(F)(F)F)c4)ccc3C)c2)ncn1 [Example 30] | 500 to 1000 | ≤ 100 | ≤ 100 | ≤ 100 |
| CNC(=O)c1cc(-c2cc(-c3cc(C(=O)Nc4ccnc(C(F)(F)F)c4)ccc3C)ccn2)ccn1 [Example 31] | 1000 to 10000 | 100 to 500 | ≤ 100 | 1000 to 10000 |
| Cc1ncc(NC(=O)c2cncc(C(F)F)c2)cc1-c1cccc(-c2cc(NC(=O)C3CC3)ncn2)c1 [Example 280] | 1000 to 10000 | ≤ 100 | ≤ 100 | 100 to 500 |
| Cc1ncc(NC(=O)c2cn(C(C)C)nn2)cc1-c1ccnc(-c2ccnc(NC(=O)C3CC3)c2)n1 [Example 281] | 1000 to 10000 | ≤ 100 | ≤ 100 | 1000 to 10000 |
| COC(=O)Nc1cc(-c2cccc(-c3cc(NC(=O)c4ccnc(C(C)(C)C#N)c4)cnc3C)c2)ccn1 [Example 282] | 1000 to 10000 | ≤ 100 | ≤ 100 | ≤ 100 |
| Cc1ncc(NC(=O)c2cnn(C(C)(C)C)c2)cc1-c1ccnc(-c2ccnc(NC(=O)C3CC3)c2)n1 [Example 283] | 1000 to 10000 | ≤ 100 | ≤ 100 | 100 to 500 |
| Cc1ccc(NC(=O)c2cnnc(C3CC3)c2)cc1-c1cccc(-c2cc(NC(=O)C3CC3)ncn2)c1 [Example 284] | 500 to 1000 | ≤ 100 | ≤ 100 | ≤ 100 |
| Cc1ncc(NC(=O)c2cn(C(C)C)nn2)cc1-c1nccc(-c2ccnc(NC(=O)C3CC3)c2)n1 [Example 285] | 1000 to 10000 | ≤ 100 | ≤ 100 | 1000 to 10000 |
| Cc1nc(-c2ccnc(NC(=O)C3CC3)c2)cc(-c2cc(NC(=O)c3ccnc(C4(C#N)CC4)c3)cnc2C)n1 [Example 286] | 1000 to 10000 | ≤ 100 | ≤ 100 | 500 to 1000 |
